Test results taken from publication PMC9133036 (Nature Communications, 2022).
“And” between values parts separate entries of the source, which are not always exact repeats. Equal entries are not always repeated. Where two headings read alike, the source gives them in different places.

Assays:
OX2R = conditions: cited from earlier work
OX2R K327A = molecular target: T1, OX2R K327A (Homo sapiens, UniProt O43614, K327A); experiment: β-arrestin PathHunter assay, OX2R K327A; assay type: cell-based; conditions: β-arrestin recruitment
T1 construct: expressed in transfected cells; host or cells: CHO-K1 stably expressing EA β-arrestin2
Protocol: (§1) β-Arrestin recruitment activity was measured by using the PathHunter system (DiscoveRX) according to the manufacturer’s instruction. Receptor constructs used were the full-length wild-type (or mutant) human OX2R sequences cloned into pCMV-ProLink (DiscoveRX). CHO-K1 cells stably expressing EA β-arrestin2 (DiscoveRX) were plated on 384 well white plates (Thermo Fisher) at 4000 cells/well in HamF12 (Wako Pure Chemical Industries) supplemented with 10% fetal bovine serum (Corning) and penicillin-streptomycin (Wako Pure Chemical Industries) and incubated overnight at 37 °C under 5% CO2. Cells were transfected with plasmids encoding wild type or each mutant ProLink-tagged human OX2R using FuGENE HD (Promega). […] Detection reagent was added and incubated for 1 h at room temperature. Luminescent signal was detected using an EnVision plate reader (PerkinElmer). β-arrestin assays on different constructs were performed in two or three independent experiments (each done in quadruplicate). Dose response curves (shown in Supplementary Fig. 8) were fitted to the three-parameter model ‘log(agonist) vs response’ in GraphPad Prism to determine pEC50 values.

OX2R F346A = molecular target: T2, OX2R F346A (Homo sapiens, UniProt O43614, F346A); experiment: β-arrestin PathHunter assay, OX2R F346A; assay type: cell-based; conditions: β-arrestin recruitment
T2 construct: expressed in transfected cells; host or cells: CHO-K1 stably expressing EA β-arrestin2
Protocol: as §1

wakefulness = conditions: subcutaneous delivery during the sleep period; cited from earlier work
OX1R A127T = molecular target: T3, OX1R A127T (Homo sapiens, UniProt O43613, A127T); experiment: IP accumulation assay, OX1R A127T; assay type: cell-based
T3 construct: FLAG; expressed in transfected cells; host or cells: HEK293
T3 sequence (O43613 1-425 A127T): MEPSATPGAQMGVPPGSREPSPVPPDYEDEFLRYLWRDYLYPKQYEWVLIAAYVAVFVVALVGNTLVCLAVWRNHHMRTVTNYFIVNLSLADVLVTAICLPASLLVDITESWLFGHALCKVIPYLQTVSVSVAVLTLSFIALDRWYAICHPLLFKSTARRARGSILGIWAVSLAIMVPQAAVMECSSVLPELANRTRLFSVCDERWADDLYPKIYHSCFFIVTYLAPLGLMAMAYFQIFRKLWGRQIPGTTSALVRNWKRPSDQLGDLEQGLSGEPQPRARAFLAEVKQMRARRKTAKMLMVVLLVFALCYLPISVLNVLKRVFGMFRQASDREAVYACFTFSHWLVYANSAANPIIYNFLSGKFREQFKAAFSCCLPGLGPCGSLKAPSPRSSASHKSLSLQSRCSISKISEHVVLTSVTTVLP
Text: (§2) The IP assay was adapted from a prior precedent. HEK293 cells were maintained in DMEM-high glucose (Millipore Sigma) supplemented with 5% fetal bovine serum (Corning) and penicillin-streptomycin (Millipore Sigma). Receptor constructs used were the full-length wild-type (or mutant) human OX1R and OX2R sequences cloned into pCDNA3. To enhance the Emax in the IP assay, a plasmid encoding full-length human Gαq subunit[66] was co-transfected into HEK293 cells with plasmids encoding orexin receptor constructs using Lipofectamine 3000 (Thermo Fisher). 24 h after transfection, the cells were plated on poly-D-lysine coated (Millipore Sigma) tissue culture-treated 96 well white plates with clear bottoms (Perkin Elmer) at 30,000 cells per well in Inositol-free DMEM (MP Biomedicals) supplemented with 5% fetal bovine serum, 4 mM L-glutamine (Millipore Sigma), penicillin-streptomycin, and about 5 uCi (5 ul) per ml myo-[2-3H] inositol (Perkin Elmer). The following day, the media was replaced with agonists that were diluted in HBSS (Millipore Sigma) containing 10 mM lithium chloride (Millipore Sigma) and incubated at 37 °C for 45 min. Then agonists were removed and cells were lysed on ice for 30 min with 10 mM formic acid (Millipore Sigma). 1.25 mg of poly-lysine coated YSI SPA beads (Perkin Elmer) was added to each well. The plates were mixed on an orbital shaker for 30 min. The plates were read on a MicroBeta scintillation counter (Perkin Elmer) the following day. IP accumulation assays on different constructs were performed in n ≥ 3 independent experiments (each done in duplicate), where n is shown in Supplementary Table 2.

OX2R T111S/T135A = molecular target: T4, OX2R T111S/T135A (Homo sapiens, UniProt O43614, T111S/T135A); experiment: IP accumulation assay, OX2R T111S/T135A; assay type: cell-based; conditions: for EC50: IP accumulation
T4 construct: FLAG; expressed in transfected cells; host or cells: HEK293
T4 sequence (O43614 1-444 T111S/T135A): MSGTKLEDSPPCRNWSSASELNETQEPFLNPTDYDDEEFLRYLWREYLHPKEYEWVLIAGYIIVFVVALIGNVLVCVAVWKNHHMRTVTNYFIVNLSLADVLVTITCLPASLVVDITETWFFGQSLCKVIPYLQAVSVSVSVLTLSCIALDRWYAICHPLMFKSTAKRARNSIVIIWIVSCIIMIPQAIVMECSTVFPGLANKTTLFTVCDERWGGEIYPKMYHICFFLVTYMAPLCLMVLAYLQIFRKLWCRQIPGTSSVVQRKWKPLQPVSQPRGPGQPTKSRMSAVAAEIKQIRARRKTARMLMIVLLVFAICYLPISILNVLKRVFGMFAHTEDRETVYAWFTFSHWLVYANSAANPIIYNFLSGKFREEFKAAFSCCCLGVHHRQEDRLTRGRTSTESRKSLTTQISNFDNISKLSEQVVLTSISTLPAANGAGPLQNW
Text: as §2

OX2R T135A = molecular target: T5, OX2R T135A (Homo sapiens, UniProt O43614, T135A); experiment: IP accumulation assay, OX2R T135A; assay type: cell-based
T5 construct: FLAG; expressed in transfected cells; host or cells: HEK293
Text: as §2, with “1.25 mg of poly-lysine coated YSI SPA beads (Perkin Elmer) was added to each well. The plates were mixed on an orbital shaker for 30 min.” left out, “IP accumulation assays on different constructs were performed in n ≥ 3 independent experiments (each done in duplicate), where n is shown in Supplementary Table 2.” left out

OX2R W120A = molecular target: T6, OX2R W120A (Homo sapiens, UniProt O43614, W120A); experiment: β-arrestin PathHunter assay, OX2R W120A; assay type: cell-based; conditions: β-arrestin recruitment
T6 construct: expressed in transfected cells; host or cells: CHO-K1 stably expressing EA β-arrestin2
Protocol: as §1

T6 sequence (O43614 whole entry W120A): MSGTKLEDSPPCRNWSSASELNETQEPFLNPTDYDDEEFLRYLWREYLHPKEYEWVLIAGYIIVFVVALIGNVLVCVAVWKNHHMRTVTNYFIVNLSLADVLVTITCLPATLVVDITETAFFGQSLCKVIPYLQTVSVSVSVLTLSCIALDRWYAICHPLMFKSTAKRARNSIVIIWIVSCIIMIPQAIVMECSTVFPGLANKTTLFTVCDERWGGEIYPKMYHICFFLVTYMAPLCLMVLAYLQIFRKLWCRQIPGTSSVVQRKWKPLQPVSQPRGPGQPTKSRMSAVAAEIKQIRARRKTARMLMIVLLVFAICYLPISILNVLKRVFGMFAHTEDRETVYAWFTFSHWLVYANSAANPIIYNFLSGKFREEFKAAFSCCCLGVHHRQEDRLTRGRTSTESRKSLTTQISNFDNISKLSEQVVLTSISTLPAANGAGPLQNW
T5 sequence (O43614 whole entry T135A): as the sequence (O43614 whole entry W120A) above, with A120W, T135A counted along it
T2 sequence (O43614 whole entry F346A): as the sequence (O43614 whole entry W120A) above, with A120W, F346A counted along it
T1 sequence (O43614 whole entry K327A): as the sequence (O43614 whole entry W120A) above, with A120W, K327A counted along it

In the case of COC(=O)N1CCC[C@H](NS(C)(=O)=O)[C@@H]1CO[C@H]1CC[C@@H](c2ccccc2)CC1 [TAK-925, methyl (2R,3S)−3-[(methylsulfonyl)amino]−2-{[(cis−4-phenylcyclohexyl)oxy]methyl}piperidine-1-carboxylate], the “potency for OX2R activation” value (OX2R) is given as “low-nanomolar”, the EC50 (OX2R K327A) is given as 2300 nM and the EC50 (OX2R F346A) is given as 350 nM. The “wakefulness and sleep time” value (wakefulness) was “dose-dependent increase in wakefulness and reduction in sleep time”, the activation at 100 µM (OX1R A127T; 0.75 h, TAK-925 conc (log, M) -4.00) was 109% and the activation at 33.1 µM (OX1R A127T; 0.75 h, TAK-925 conc (log, M) -4.48) was 92.5%. It also gave an activation at 11.2 µM (OX1R A127T; 0.75 h, TAK-925 conc (log, M) -4.95) of 78.5%, an activation at 3.72 µM (OX1R A127T; 0.75 h, TAK-925 conc (log, M) -5.43) of 56% and an activation at 1.23 µM (OX1R A127T; 0.75 h, TAK-925 conc (log, M) -5.91) of 27.7%. The activation at 0.407 µM (OX1R A127T; 0.75 h, TAK-925 conc (log, M) -6.39) was 18.7%, the activation at 0.0457 µM (OX1R A127T; 0.75 h, TAK-925 conc (log, M) -7.34) was 12% and the activation at 0.0151 µM (OX1R A127T; 0.75 h, TAK-925 conc (log, M) -7.82) was 13.1%. For the same compound, the activation at 0.0017 µM (OX1R A127T; 0.75 h, TAK-925 conc (log, M) -8.77) was 0%, the EC50 (OX1R A127T; IP accumulation) was 4.7 µM and the “% IP accumulation” value (OX1R A127T; TAK-925 conc (log, M) -8.77) was 0.00%. The Emax (OX1R A127T; relative to OX1R S103T/A127T/TAK-925) was 100, the EC50 (OX2R T111S/T135A; pEC50 ± SEM, read-out: pEC50 (converted)) was 3.98 µM and the EC50 (OX2R T111S/T135A; read-out: EC50) was 3.6 µM. The “% IP accumulation” value (OX2R T111S/T135A; TAK-925 conc (log, M) -4.00) was 75.61% and 80.32% and 68.16%, the “% IP accumulation” value (OX2R T111S/T135A; TAK-925 conc (log, M) -4.48) was 79.41% and 78.58% and 59.24% and the “% IP accumulation” value (OX2R T111S/T135A; TAK-925 conc (log, M) -4.95) was 63.00% and 60.94% and 53.37%. The “% IP accumulation” value (OX2R T111S/T135A; TAK-925 conc (log, M) -5.43) was 45.74% and 44.90% and 36.03%, the “% IP accumulation” value (OX2R T111S/T135A; TAK-925 conc (log, M) -5.91) was 30.51% and 19.14% and 15.90% and the “% IP accumulation” value (OX2R T111S/T135A; TAK-925 conc (log, M) -6.39) was 18.69% and 18.10% and 13.23%. The “% IP accumulation” value (OX2R T111S/T135A; TAK-925 conc (log, M) -8.29) was 6.54% and 0.00%, the “% IP accumulation” value (OX2R T111S/T135A; TAK-925 conc (log, M) -8.77) was 0.00% and 2.28% and 1.85% and the Emax (OX2R T111S/T135A; relative to OX2R WT/TAK-925) was 78. The EC50 (OX2R T135A; IP accumulation) was 580 nM, the Emax (OX2R T135A; relative to OX2R WT/TAK-925) was 90 and the EC50 (OX2R W120A; read-out: EC50) was > 30 µM. For the same compound, the EC50 (OX2R W120A; read-out: pEC50 (converted)) was > 30.2 µM.
